Laboratory results published in paper PMC12637020, “Synthesis and biological evaluation of novel hydrazone derivatives for the treatment of Alzheimer's disease” (RSC Advances, 2025).

Legend:
BChE enzyme = BChE enzyme (Homo sapiens, UniProt P06276); test: biochemical; settings: for inhibition at 1000 µM: read-out: BChE% inhibition 10^−3 M; for inhibition at 100 µM: read-out: BChE% inhibition 10^−4 M
Source text: (§1) The assay was completed in two steps.
(§2) The potential inhibitory effects of the obtained molecules on the AChE and BChE enzymes was examined using a variation of the Ellman method.[31,33,41–43] Distilled water from the Millipore/Milli-Q purification apparatus was utilized at every stage of the biological activity investigations during the evaluation process. In less than a week, all the solutions required for the biological investigation were meticulously prepared from scratch. A “BioTek-Precision Power (United States)” robotic pipetting system was utilized to distribute the prepared solutions and apply the test compounds and enzyme–substrate solutions to 96-well plates. The “BioTek-Synergy H1 Microplate Reader (United States)” was employed to establish and follow the enzyme protocol for spectrophotometric measurements. Solutions of the compounds were prepared at two different concentrations, 10^−3 M and 10^−4 M, using dimethylsulfoxide (DMSO) as 2% solution, and these were used in biological activity studies.

AChE enzyme = AChE enzyme (Homo sapiens, UniProt P22303); test: biochemical; assay type: biochemical; settings: for inhibition at 1000 µM: read-out: AChE% inhibition 10^−3 M; for inhibition at 100 µM: read-out: AChE% inhibition 10^−4 M; for IC50: tested at 10 to 0.001 µM
Source text: as §1, §2

Sequence of AChE enzyme (P22303 32-614): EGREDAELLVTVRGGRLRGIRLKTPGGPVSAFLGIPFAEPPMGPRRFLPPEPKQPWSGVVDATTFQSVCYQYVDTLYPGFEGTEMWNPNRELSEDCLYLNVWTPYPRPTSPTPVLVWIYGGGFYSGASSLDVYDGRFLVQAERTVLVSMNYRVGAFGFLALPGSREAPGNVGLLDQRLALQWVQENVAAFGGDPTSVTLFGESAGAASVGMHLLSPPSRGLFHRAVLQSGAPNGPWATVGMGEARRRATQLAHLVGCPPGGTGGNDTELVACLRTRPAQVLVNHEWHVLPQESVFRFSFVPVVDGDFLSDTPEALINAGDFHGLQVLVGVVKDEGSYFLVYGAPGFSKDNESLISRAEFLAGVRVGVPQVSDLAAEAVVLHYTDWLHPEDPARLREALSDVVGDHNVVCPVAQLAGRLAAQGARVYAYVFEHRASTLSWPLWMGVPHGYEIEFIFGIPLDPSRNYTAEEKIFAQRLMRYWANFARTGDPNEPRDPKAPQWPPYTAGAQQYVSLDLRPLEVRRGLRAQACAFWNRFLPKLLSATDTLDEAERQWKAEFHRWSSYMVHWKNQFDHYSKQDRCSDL
Sequence of BChE enzyme (P06276 29-602, species assumed): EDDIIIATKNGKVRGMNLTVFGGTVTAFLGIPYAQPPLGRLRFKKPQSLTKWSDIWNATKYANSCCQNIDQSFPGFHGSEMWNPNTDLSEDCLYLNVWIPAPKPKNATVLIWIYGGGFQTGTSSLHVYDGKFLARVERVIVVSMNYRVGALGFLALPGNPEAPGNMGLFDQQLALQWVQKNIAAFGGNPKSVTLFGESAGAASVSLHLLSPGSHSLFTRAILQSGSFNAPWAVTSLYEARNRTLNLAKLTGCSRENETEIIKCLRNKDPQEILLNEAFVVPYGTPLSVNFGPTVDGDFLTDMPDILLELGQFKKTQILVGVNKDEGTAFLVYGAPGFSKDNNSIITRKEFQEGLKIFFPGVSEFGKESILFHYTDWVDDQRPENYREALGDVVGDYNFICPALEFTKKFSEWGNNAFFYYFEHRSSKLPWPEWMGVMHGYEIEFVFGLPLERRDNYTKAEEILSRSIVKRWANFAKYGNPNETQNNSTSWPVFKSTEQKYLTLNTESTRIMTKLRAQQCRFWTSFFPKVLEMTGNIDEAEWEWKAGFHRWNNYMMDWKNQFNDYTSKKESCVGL

Compound | IC50 (BChE enzyme) [µM] | inhibition at 1000 µM (BChE enzyme) [%] | inhibition at 100 µM (BChE enzyme) [%] | inhibition at 1000 µM (AChE enzyme) [%] | inhibition at 100 µM (AChE enzyme) [%] | IC50 (AChE enzyme) [µM] | inhibitory activity (AChE enzyme; at concentrations of 1000 and 100 µM)
C=CCn1c(-c2ccc(C)cc2C)csc1=N/N=C(\C)c1ccc(N2CCCCC2)cc1 [D2i, 3-Allyl-4-(2,4-dimethylphenyl)-2-(((E)-1-(4-(piperidin-1-yl)phenyl)ethylidene)hydrazineylidene)-2,3-dihydrothiazole] | > 1000 | 42.1 ± 2.02 | 28.7 ± 1.12 | 28.1 ± 1.25 | 20.5 ± 0.862 | > 1000 | 
CCn1c(-c2ccc(F)cc2)csc1=NN=C(C)c1ccc(N2CCCCC2)cc1 [D3b, 3-Ethyl-4-(4-fluorophenyl)-2-((1-(4-(piperidin-1-yl)phenyl)ethylidene)hydrazineylidene)-2,3-dihydrothiazole] | > 1000 | 32.6 ± 1.46 | 22.6 ± 0.964 | 40.2 ± 1.85 | 35.8 ± 1.25 | > 1000 | 
C=CCn1c(-c2ccc(Cl)cc2)csc1=NN=C(C)c1ccc(N2CCCCC2)cc1 [D2d, 3-Allyl-4-(4-chlorophenyl)-2-((1-(4-(piperidin-1 yl)phenyl)ethylidene)hydrazineylidene)-2,3-dihydrothiazole] | > 1000 | 30.5 ± 1.03 | 20 ± 0.926 | 31.2 ± 1.32 | 28 ± 0.884 | > 1000 | 
CCn1c(-c2ccc(C#N)cc2)csc1=NN=C(C)c1ccc(N2CCCCC2)cc1 [D3f, 4-(-3-Ethyl-2-((-1-(4-(piperidin-1-yl)phenyl)ethylidene)hydrazineylidene)-2,3-dihydrothiazol-4-yl)benzonitrile] | > 1000 | 30.2 ± 1.05 | 21.1 ± 0.947 | 57.4 ± 1.72 | 25.4 ± 0.856 | > 100 | 
C=CCn1c(-c2ccc(F)cc2)csc1=NN=C(C)c1ccc(N2CCCCC2)cc1 [D2b, 3-Allyl-4-(4-fluorophenyl)-2-((1-(4-(piperidin-1yl)phenyl)ethylidene)hydrazineylidene)-2,3-dihydrothiazole] | > 1000 | 38.2 ± 1.66 | 27.4 ± 1.25 | 47.2 ± 2.17 | 41.7 ± 1.96 | > 1000 | 
C=CCn1c(-c2ccc(C)cc2)csc1=NN=C(C)c1ccc(N2CCCCC2)cc1 [D2a, 3-Allyl-2-((1-(4-(piperidin-1-yl)phenyl)ethylidene)hydrazineylidene)-4-(p-tolyl)-2,3-dihydrothiazole] | > 1000 | 30.8 ± 1.07 | 20.9 ± 0.802 | 38.6 ± 1.35 | 30.1 ± 1.45 | > 1000 | 
COc1ccc(-c2csc(=NN=C(C)c3ccc(N4CCCCC4)cc3)n2C)cc1 [D1e, 4-(4-Methoxyphenyl)-3-methyl-2-((1-(4-(piperidin-1-yl)phenyl)ethylidene)hydrazineylidene)-2,3-dihydrothiazole] | > 1000 | 27.6 ± 1.08 | 17.9 ± 0.71 | 92.6 ± 1.8 | 84.1 ± 2.15 | 0.613 ± 0.025 | more than 50%
CCn1c(-c2ccc(OC)cc2)csc1=NN=C(C)c1ccc(N2CCCCC2)cc1 [D3e, 3-Ethyl-4-(4-methoxyphenyl)-2-((1-(4-(piperidin-1-yl)phenyl)ethylidene)hydrazineylidene)-2,3-dihydrothiazole] | > 1000 | 36.3 ± 1.42 | 30.3 ± 0.956 | 34.1 ± 1.57 | 21.6 ± 0.926 | > 1000 | 
CC(=NN=c1scc(-c2ccc(Cl)cc2)n1C)c1ccc(N2CCCCC2)cc1 [D1d, 4-(4-Chlorophenyl)-3-methyl-2-((1-(4-(piperidin-1-yl)phenyl)ethylidene)hydrazineylidene)-2,3-dihydrothiazole] | > 1000 | 23 ± 0.725 | 15.2 ± 0.734 | 55.7 ± 2.08 | 29.6 ± 1.23 | > 100 | 
CC(=NN=c1scc(-c2ccc(C)cc2)n1C)c1ccc(N2CCCCC2)cc1 [D1a, 3-Methyl-2-((1-(4-(piperidin-1-yl)phenyl)ethylidene)hydrazineylidene)-4-(p-tolyl)-2,3-dihydrothiazole] | > 1000 | 32.5 ± 1.06 | 20.4 ± 0.984 | 40.5 ± 1.92 | 36.5 ± 1.72 | > 1000 | 
C=CCn1c(-c2ccc(OC)cc2)csc1=NN=C(C)c1ccc(N2CCCCC2)cc1 [D2e, 3-Allyl-4-(4-methoxyphenyl)-2-((1-(4-(piperidin-1-yl)phenyl)ethylidene)hydrazineylidene)-2,3-dihydrothiazole] | > 1000 | 25.7 ± 0.963 | 17.2 ± 0.634 | 39.6 ± 1.76 | 25.3 ± 1.06 | > 1000 | 
CC(=NN=c1scc(-c2ccc(Cl)cc2Cl)n1C)c1ccc(N2CCCCC2)cc1 [D1g, 4-(2,4-Dichlorophenyl)-3-methyl-2-((1-(4-(piperidin-1-yl)phenyl)ethylidene)hydrazineylidene)-2,3-dihydrothiazole] | > 1000 | 36.3 ± 1.56 | 31.1 ± 1.07 | 63.5 ± 1.96 | 16.9 ± 0.778 | > 100 | 
CCn1c(-c2ccc([N+](=O)[O-])cc2)csc1=NN=C(C)c1ccc(N2CCCCC2)cc1 [D3c, 3-Ethyl-4-(4-nitrophenyl)-2-((1-(4-(piperidin-1 yl)phenyl)ethylidene)hydrazineylidene)-2,3-dihydrothiazole] | > 1000 | 33.9 ± 1.54 | 27.3 ± 1.16 | 42.8 ± 2.04 | 38.2 ± 1.74 | > 1000 | 
CCn1c(-c2ccc(C)cc2C)csc1=NN=C(C)c1ccc(N2CCCCC2)cc1 [D3i, 4-(2,4-Dimethylphenyl)-3-ethyl-2-((1-(4-(piperidin-1-yl)phenyl)ethylidene)hydrazineylidene)-2,3-dihydrothiazole] | > 1000 | 31.5 ± 1.04 | 24.1 ± 0.858 | 40.9 ± 1.59 | 22.1 ± 0.962 | > 1000 | 
CCn1c(-c2ccc(Cl)c(Cl)c2)csc1=NN=C(C)c1ccc(N2CCCCC2)cc1 [D3h, 4-(3,4-Dichlorophenyl)-3-ethyl-2-((1-(4-(piperidin-1 yl)phenyl)ethylidene)hydrazineylidene)-2,3-dihydrothiazole] | > 1000 | 38.7 ± 1.32 | 32.5 ± 1.13 | 28.4 ± 1.25 | 23.7 ± 0.969 | > 1000 | 
CCn1c(-c2ccc(Cl)cc2Cl)csc1=NN=C(C)c1ccc(N2CCCCC2)cc1 [D3g, 4-(2,4-Dichlorophenyl)-3-ethyl-2-((1-(4-(piperidin-1 yl)phenyl)ethylidene)hydrazineylidene)-2,3-dihydrothiazole] | > 1000 | 33.5 ± 1.26 | 26.8 ± 1.06 | 26.7 ± 1.15 | 20.9 ± 0.884 | > 1000 | 
C=CCn1c(-c2ccc(Cl)c(Cl)c2)csc1=N/N=C(\C)c1ccc(N2CCCCC2)cc1 [D2h, 3-Allyl-4-(3,4-dichlorophenyl)-2-(((E)-1-(4-(piperidin-1-yl)phenyl)ethylidene)hydrazineylidene)-2,3-dihydrothiazole] | > 1000 | 36.2 ± 1.36 | 31.5 ± 0.963 | 31.5 ± 1.04 | 20.3 ± 0.989 | > 1000 | 
CC(=NN=c1scc(-c2ccc(F)cc2)n1C)c1ccc(N2CCCCC2)cc1 [D1b, 4-(4-Fluorophenyl)-3-methyl-2-((1-(4-(piperidin-1 yl)phenyl)ethylidene)hydrazineylidene)-2,3-dihydrothiazole] | > 1000 | 30.2 ± 0.936 | 19.6 ± 0.864 | 37.2 ± 1.54 | 31.1 ± 1.36 | > 1000 | 
CCn1c(-c2ccc(C)cc2)csc1=NN=C(C)c1ccc(N2CCCCC2)cc1 [D3a, 3-Ethyl-2-((1-(4-(piperidin-1-yl)phenyl)ethylidene)hydrazineylidene)-4-(p-tolyl)-2,3-dihydrothiazole] | > 1000 | 45.4 ± 2.09 | 25.3 ± 1 | 56.2 ± 1.75 | 37.5 ± 0.921 | > 100 | 
CC(=NN=c1scc(-c2ccc(Cl)c(Cl)c2)n1C)c1ccc(N2CCCCC2)cc1 [D1h, 4-(3,4-Dichlorophenyl)-3-methyl-2-((1-(4-(piperidin-1-yl)phenyl)ethylidene)hydrazineylidene)-2,3-dihydrothiazole] | > 1000 | 31.5 ± 1.31 | 24.3 ± 0.925 | 27.6 ± 1.18 | 14.7 ± 0.646 | > 1000 | 
C=CCn1c(-c2ccc(C#N)cc2)csc1=NN=C(C)c1ccc(N2CCCCC2)cc1 [D2f, 4-(3-Allyl-2-((1-(4-(piperidin-1-yl)phenyl)ethylidene)hydrazineylidene)-2,3-dihydrothiazol-4-yl)benzonitrile] | > 1000 | 21.9 ± 0.855 | 16.5 ± 0.578 | 76 ± 2.28 | 29.8 ± 1.26 | > 100 | 
C=CCn1c(-c2ccc(Cl)cc2Cl)csc1=NN=C(C)c1ccc(N2CCCCC2)cc1 [D2g, 3-Allyl-4-(2,4-dichlorophenyl)-2-((1-(4-(piperidin-1-yl)phenyl)ethylidene)hydrazineylidene)-2,3-dihydrothiazole] | > 1000 | 29.3 ± 1.35 | 24 ± 1.07 | 39.7 ± 1.88 | 31.6 ± 1.47 | > 1000 | 
